# Source: ChEMBL document CHEMBL1201862, “PubChem BioAssay data set” (2004)
# Activity calls are given as the source filed them. Cut-off read from the data, not from the text of the source: actives have a measured IC50 and inactives only a lower limit.
# Target: Envelope glycoprotein gp160 (Human immunodeficiency virus 1, UniProt Q6QLK5)
# Assay: cell-free HIV fusion peptide-binding blockers – biochemical, uHTS, fluorescence dequenching, […] (AID 1986)
# Envelope glycoprotein gp160, sequence (Q6QLK5 whole entry, the tested form may be a part): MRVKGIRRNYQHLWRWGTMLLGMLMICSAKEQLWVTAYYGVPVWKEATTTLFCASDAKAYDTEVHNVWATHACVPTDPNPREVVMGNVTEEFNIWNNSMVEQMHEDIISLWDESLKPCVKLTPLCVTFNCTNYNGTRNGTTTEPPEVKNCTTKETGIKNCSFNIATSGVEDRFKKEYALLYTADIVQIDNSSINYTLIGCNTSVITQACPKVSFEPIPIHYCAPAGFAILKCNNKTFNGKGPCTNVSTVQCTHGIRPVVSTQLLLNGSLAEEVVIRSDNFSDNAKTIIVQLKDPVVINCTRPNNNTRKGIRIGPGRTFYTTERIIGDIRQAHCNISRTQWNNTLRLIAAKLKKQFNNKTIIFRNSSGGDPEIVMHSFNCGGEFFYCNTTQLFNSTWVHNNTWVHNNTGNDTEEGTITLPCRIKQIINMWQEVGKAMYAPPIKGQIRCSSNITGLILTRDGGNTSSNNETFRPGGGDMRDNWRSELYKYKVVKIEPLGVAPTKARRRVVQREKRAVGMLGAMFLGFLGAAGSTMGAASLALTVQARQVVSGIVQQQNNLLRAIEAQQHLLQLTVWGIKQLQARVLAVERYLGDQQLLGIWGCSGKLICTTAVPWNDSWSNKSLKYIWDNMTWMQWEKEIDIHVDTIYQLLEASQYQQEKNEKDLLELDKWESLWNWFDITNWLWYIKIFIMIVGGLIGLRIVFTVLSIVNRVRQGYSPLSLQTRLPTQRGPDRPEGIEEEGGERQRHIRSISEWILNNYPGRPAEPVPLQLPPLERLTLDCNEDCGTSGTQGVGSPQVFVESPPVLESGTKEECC
compound,measurement,value
Cc1cc(C)c2nc(N3C(=O)C(O)=C(C(=O)c4ccco4)C3c3ccco3)sc2c1 (stereo unspecified),IC50,12.4 µM (active)
